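1) Cells in 96-well plates. 2) Compound, 48 h, 5 concentrations. 3) Linear interpolation between surrounding doses. 4) Unreached endpoint = highest concentration. GI50 marks 50% less growth.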 Activity calls are given as the source filed them. No stated cut-off is given here; in the data, active = GI50 up to about 1.1 µM and inactive = higher.
What was measured:
Assay in all cases: NCI anticancer screen, dose series, 48 h
786-0 = tested on: 786-0
CCRF-CEM = tested on: CCRF-CEM
COLO 205 = tested on: COLO 205
HCT-116 = tested on: HCT-116
HL-60 = tested on: HL-60
HOP-62 = tested on: HOP-62
HT-29 = tested on: HT-29
Hs-578T = tested on: Hs-578T
LOX IMVI = tested on: LOX IMVI
MDA-MB-435 = tested on: MDA-MB-435
NCI-H460 = tested on: NCI-H460
NCI-H522 = tested on: NCI-H522
OVCAR-3 = tested on: OVCAR-3
SF-268 = tested on: SF-268
SF-295 = tested on: SF-295
SNB-19 = tested on: SNB-19
SR = tested on: SR
TK-10 = tested on: TK-10
CAKI-1 = tested on: CAKI-1
KM12 = tested on: KM12

Measured: GI50

COc1cc(OC)c2nc(C)c3c(c2c1)NCC3
inactive: 786-0 4.42 µM | CCRF-CEM 5.26 µM | COLO 205 4.68 µM | HCT-116 3.47 µM | HL-60 15.7 µM | HOP-62 7.74 µM | HT-29 4.05 µM | Hs-578T 2.56 µM | LOX IMVI 3.25 µM | MDA-MB-435 10 µM | NCI-H460 3.33 µM | NCI-H522 7.73 µM | OVCAR-3 10.2 µM | SF-268 5.92 µM | SF-295 11.2 µM | SNB-19 12.6 µM | SR 2.89 µM | TK-10 7.91 µM

O=C1c2scc(-c3ccccc3)c2-n2cccc21
inactive: 786-0 13.9 µM | CAKI-1 11.4 µM | CCRF-CEM 19.7 µM | COLO 205 17.8 µM | HCT-116 13.4 µM | HOP-62 16.3 µM | HT-29 10.9 µM | Hs-578T 4.59 µM | KM12 13.6 µM | LOX IMVI 14.4 µM | MDA-MB-435 14.5 µM | NCI-H460 31.1 µM | NCI-H522 11.4 µM | OVCAR-3 16.3 µM | SF-268 14.3 µM | SF-295 18.1 µM | SNB-19 15.9 µM | SR 13 µM | TK-10 49.8 µM

COc1ccc(-c2nc3ncccn3c2-c2ccc(S(C)(=O)=O)cc2)cc1
inactive: 786-0 > 100 µM | CAKI-1 24.9 µM | CCRF-CEM > 100 µM | COLO 205 > 100 µM | HCT-116 > 100 µM | HL-60 > 100 µM | HOP-62 > 100 µM | HT-29 > 100 µM | Hs-578T > 100 µM | KM12 > 100 µM | LOX IMVI > 100 µM | MDA-MB-435 38 µM | NCI-H460 66.4 µM | OVCAR-3 75.7 µM | SF-268 35.2 µM | SF-295 > 100 µM | SNB-19 > 100 µM | SR 47.6 µM

O=C(O)c1cc2ccccc2c(/N=N\c2cc(C(F)(F)F)ccc2Cl)c1O
inactive: 786-0 56.1 µM | CAKI-1 94.8 µM | CCRF-CEM 33.6 µM | COLO 205 39.7 µM | HCT-116 53.8 µM | HL-60 21.8 µM | HOP-62 38.1 µM | HT-29 77.6 µM | Hs-578T 37.6 µM | KM12 23.8 µM | MDA-MB-435 > 100 µM | NCI-H460 38.5 µM | NCI-H522 > 100 µM | OVCAR-3 22.5 µM | SF-268 > 100 µM | SF-295 47.6 µM | SNB-19 1.17 µM | SR 24.8 µM | TK-10 > 100 µM

CC(C)(C)C(=O)Nc1cccc(-c2ccc[nH]2)n1
inactive: 786-0 > 100 µM | CAKI-1 > 100 µM | CCRF-CEM > 100 µM | COLO 205 > 100 µM | HCT-116 > 100 µM | HOP-62 > 100 µM | HT-29 > 100 µM | Hs-578T 22.7 µM | KM12 > 100 µM | LOX IMVI > 100 µM | MDA-MB-435 > 44.9 µM | NCI-H460 > 96.8 µM | NCI-H522 > 75 µM | OVCAR-3 > 83.8 µM | SF-268 > 100 µM | SF-295 99.8 µM | SNB-19 > 100 µM | SR 67.1 µM | TK-10 > 100 µM

CN1CCN(C(=S)N(C(=O)c2ccc(Cl)cc2)c2ccccc2)CC1
inactive: 786-0 > 100 µM | CCRF-CEM > 10 µM | COLO 205 > 100 µM | HL-60 > 100 µM | HT-29 > 100 µM | Hs-578T 34.5 µM | KM12 > 100 µM | LOX IMVI > 100 µM | MDA-MB-435 > 100 µM | NCI-H460 > 100 µM | NCI-H522 > 100 µM | OVCAR-3 > 100 µM | SF-268 > 100 µM | SF-295 > 100 µM | SNB-19 > 100 µM | SR > 100 µM | TK-10 > 100 µM

O=C(CCc1cc(O)cc(O)c1)NCCc1ccc(O)c(O)c1
inactive: 786-0 > 100 µM | CAKI-1 > 100 µM | CCRF-CEM 17.3 µM | COLO 205 > 100 µM | HCT-116 > 100 µM | HOP-62 > 100 µM | HT-29 > 100 µM | Hs-578T > 100 µM | KM12 > 100 µM | LOX IMVI > 100 µM | MDA-MB-435 21.6 µM | NCI-H460 > 100 µM | NCI-H522 > 100 µM | OVCAR-3 > 100 µM | SF-268 > 100 µM | SF-295 > 100 µM | SNB-19 > 100 µM | SR > 100 µM | TK-10 > 100 µM

Cc1cc(C)nc(NS(=O)(=O)c2ccc(Nc3nnc(/C=C/c4c(O)ccc5ccccc45)c(=O)n3N)cc2)n1
inactive: 786-0 28.6 µM | CAKI-1 22.1 µM | CCRF-CEM 12 µM | HCT-116 17.9 µM | HL-60 22.1 µM | HOP-62 37.4 µM | HT-29 57.8 µM | Hs-578T 79.4 µM | MDA-MB-435 20.1 µM | OVCAR-3 13.2 µM | SF-268 33.7 µM | SF-295 61.1 µM | SNB-19 43.1 µM | SR 18.8 µM

c1ccc(NC2(c3nnnn3C3CCCCC3)CCNCC2)cc1
inactive: 786-0 15 µM | CCRF-CEM 20.4 µM | COLO 205 19.8 µM | HCT-116 15.2 µM | HL-60 14.1 µM | HOP-62 15.9 µM | HT-29 16.7 µM | Hs-578T 14.1 µM | KM12 15.3 µM | LOX IMVI 15.7 µM | MDA-MB-435 19.4 µM | NCI-H460 15.2 µM | SF-268 39.6 µM | SF-295 17.9 µM | SNB-19 17.5 µM | SR 17.5 µM | TK-10 16.8 µM

O=C(NC(CO)Cc1ccc(Oc2cc(CC(CO)NC(=O)OCc3ccccc3)ccc2OC(=O)OCc2ccccc2)cc1)OCc1ccccc1 (stereo not drawn)
inactive: 786-0 25.1 µM | CAKI-1 26 µM | CCRF-CEM 4.28 µM | COLO 205 18.2 µM | HCT-116 16.7 µM | HL-60 9.82 µM | HOP-62 20.2 µM | HT-29 14.2 µM | Hs-578T 5.97 µM | KM12 17.1 µM | LOX IMVI 12.1 µM | MDA-MB-435 16.6 µM | NCI-H460 17.8 µM | OVCAR-3 19.5 µM | SF-268 23.5 µM | SF-295 15.9 µM | SNB-19 22.4 µM | SR 4.19 µM | TK-10 20.7 µM

Cc1ccc(/C=N/NS(=O)(=O)c2ccc(/C=C3\NC(=O)NC3=O)cc2)cc1
inactive: 786-0 61.1 µM | CAKI-1 > 100 µM | CCRF-CEM > 100 µM | COLO 205 > 100 µM | HCT-116 > 100 µM | HL-60 > 100 µM | HOP-62 27.6 µM | HT-29 > 100 µM | Hs-578T 24.2 µM | KM12 > 100 µM | LOX IMVI > 100 µM | MDA-MB-435 > 100 µM | NCI-H460 > 100 µM | OVCAR-3 > 100 µM | SF-268 22.1 µM | SF-295 46.7 µM | SNB-19 31 µM | SR 31.6 µM | TK-10 > 100 µM

Source: ChEMBL document CHEMBL1201862, “PubChem BioAssay data set” (2004)
